What was measured:
[1] = Risperidone solubility in vehicle / solvent; type: physicochemical; conditions: NMP versus PC
[2] = Density and viscosity of placebo vehicle and formulation; type: physicochemical
From the text: Formulation No. R66 consisted of SAIB/NMP/PLGA/RSP in the following weight proportion: 45.5/27.3/18.2/9.0. Formulation No. R131 consisted of SAIB/PC/PLGA/RSP in the following weight proportions 40.0/33.7/17.3/9.0. It should be noted that Formulation Nos. […] and […] were formulated to yield approximately the same viscosity (see below Table). However, to achieve similar viscosities, more PC must be added to the vehicle, with a corresponding decrease in SAIB (and a minor decrease in PLGA). [table] The difference in the above-noted settling versus the difference in vehicle density is notable. As shown in the first Table of this Example, the viscosity of the placebo vehicle for Formulation No. R66 at 5° C. is slightly higher than the viscosity of the placebo vehicle for Formulation No. R131 at 5° C. […] R131

With `Cc1nc2n(c(=O)c1CCN1CCC(c3noc4cc(F)ccc34)CC1)CCCC2` [risperidone] the “risperidone solubility in solvents” value [1] was “higher solubility in NMP than in PC” and the density of risperidone [2] was 1.30 g/mL.
